Experimental findings from patent US20250221996A1, “HETEROCYCLIC COMPOUNDS, COMPOSITIONS THEREOF, AND METHODS OF TREATMENT THEREWITH” (BeiGene, Ltd., priority 2022, published 2025) are described below.

The test system of one test is pERK1/2(THR202/TYR204) level in AsPC-1 cells. Briefly: pERK assay (HTRF) in AsPC-1 cell line. To be noted: 2 h compound treatment. It counts as cell-based. The method, then: AsPC-1 cell line was used in this study. Cells were maintained in RPMI-1640 supplemented with 10% fetal bovine serum (Thermo Fisher), 50 units/mL penicillin and streptomycin (Thermo Fisher) and kept at 37° C. in a humidified atmosphere of 5% CO2 in air. Cells were reinstated from frozen stocks that were laid down within 30 passages from the original cells purchased. 30000 cells per well were seeded into a 96-well plate and incubated overnight. Cells were treated with a 10-point dilution series. The final compound concentration is from 0 to 10 μM. After 2 h compound treatment, cells were lysed, and the pERK1/2(THR202/TYR204) level in the cell lysates was detected by HTRF kit (Cisbio). In brief, a total of 16 μL of cell lysate from each well of a 96-well plate was transferred to a 384-well white assay plate. Lysate from each well was incubated with 2 μL of Eu3+-cryptate (donor) labeled anti-phospho-ERK1/2 and 2 μL of D2 (acceptor) labeled anti-phospho-ERK1/2 antibodies (Cisbio) overnight in dark at room temperature. When donor and acceptor are in close proximity, excitation of the donor with laser triggers a Fluorescence Resonance Energy Transfer (FRET) towards the acceptor, which in turn fluoresces at 655 nm wavelength. FRET signals were measured using a PHERAstar FSX reader (BMG Labtech). IC50 determination was performed by fitting the curve of percent inhibition versus the log of the inhibitor concentration using Dotmatics.
In general terms: TR-FRET usually uses a lanthanide donor and a delayed reading to cut background.
The compound `N#Cc1c(N)sc2c(F)ccc(-c3c(C(F)(F)F)cc4c(N5CC6CCC(C5)N6)nc(OCC56COC(C(F)F)(C5)C6)nc4c3F)c12` (single isomer, unassigned) [Example 1-Isomer 1, 4-(4-(3,8-diazabicyclo[3.2.1]octan-3-yl)-2-((1-(difluoromethyl)-2-oxabicyclo[2.1.1]hexan-4-yl)methoxy)-8-fluoro-6-(trifluoromethyl)quinazolin-7-yl)-2-amino-7-fluorobenzo[b]thiophene-3-carbonitrile] came in with an IC50 of 2570 nM. That is a single-digit micromolar value.
Still for that read-out and setting: with `N#Cc1c(N)sc2c(F)ccc(-c3c(C(F)(F)F)cc4c(N5CC6CCC(C5)N6)nc(OCC56COC(C(F)F)(C5)C6)nc4c3F)c12` (single isomer, unassigned) [Example 1-Isomer 2, 4-(4-(3,8-diazabicyclo[3.2.1]octan-3-yl)-2-((1-(difluoromethyl)-2-oxabicyclo[2.1.1]hexan-4-yl)methoxy)-8-fluoro-6-(trifluoromethyl)quinazolin-7-yl)-2-amino-7-fluorobenzo[b]thiophene-3-carbonitrile] the figure was 84 nM; with `N#Cc1c(N)sc2c(F)ccc(-c3c(Cl)cc4c(N5CC6CCC(C5)N6)nc(OCC56COC(C5)C6)nc4c3F)c12` (single isomer, unassigned) [Example 2-Isomer 1, 4-(2-((2-oxabicyclo[2.1.1]hexan-4-yl)methoxy)-4-(3,8-diazabicyclo[3.2.1]octan-3-yl)-6-chloro-8-fluoroquinazolin-7-yl)-2-amino-7-fluorobenzo[b]thio phene-3-carbonitrile], 160 nM.
Still for that read-out and setting: for `N#Cc1c(N)sc2c(F)ccc(-c3c(Cl)cc4c(N5CC6CCC(C5)N6)nc(OCC56COC(C5)C6)nc4c3F)c12` (single isomer, unassigned) [Example 2-Isomer 2, 4-(2-((2-oxabicyclo[2.1.1]hexan-4-yl)methoxy)-4-(3,8-diazabicyclo[3.2.1]octan-3-yl)-6-chloro-8-fluoroquinazolin-7-yl)-2-amino-7-fluorobenzo[b]thio phene-3-carbonitrile] the value was > 10000 nM; for `COC1(COc2nc(N3CC4CCC(C3)N4)c3cc(C(F)(F)F)c(-c4ccc(F)c5sc(N)c(C#N)c45)c(F)c3n2)CCOC1` (single isomer, unassigned) [Example 3-Isomer 3, 4-(4-(3,8-diazabicyclo[3.2.1]octan-3-yl)-8-fluoro-2-((3-methoxytetra hydrofuran-3-yl)methoxy)-6-(trifluoromethyl)quinazolin-7-yl)-2-amino-7-fluoro benzo[b]thiophene-3-carbonitrile], 96 nM; for `COC1(COc2nc(N3CC4CCC(C3)N4)c3cc(C(F)(F)F)c(-c4ccc(F)c5sc(N)c(C#N)c45)c(F)c3n2)CCOC1` (single isomer, unassigned) [Example 3-Isomer 4, 4-(4-(3,8-diazabicyclo[3.2.1]octan-3-yl)-8-fluoro-2-((3-methoxytetra hydrofuran-3-yl)methoxy)-6-(trifluoromethyl)quinazolin-7-yl)-2-amino-7-fluoro benzo[b]thiophene-3-carbonitrile], 273 nM.
The same measure, in the same setting: with `N#Cc1c(N)sc2c(F)ccc(-c3c(C(F)(F)F)cc4c(N5C6CCC5CNC6)nc(OCC56COC(C5)C6)nc4c3F)c12` (single isomer, unassigned) [Example 9-Isomer 1, 4-(2-((2-oxabicyclo[2.1.1]hexan-4-yl)methoxy)-4-(3,8-diazabicyclo[3.2.1]octan-8-yl)-8-fluoro-6-(trifluoromethyl)quinazolin-7-yl)-2-amino-7-fluorobenzo[b]thiophene-3-carbonitrile] the figure was > 10000 nM; with `N#Cc1c(N)sc2c(F)ccc(-c3c(C(F)(F)F)cc4c(N5C6CCC5CNC6)nc(OCC56COC(C5)C6)nc4c3F)c12` (single isomer, unassigned) [Example 9-Isomer 2, 4-(2-((2-oxabicyclo[2.1.1]hexan-4-yl)methoxy)-4-(3,8-diazabicyclo[3.2.1]octan-8-yl)-8-fluoro-6-(trifluoromethyl)quinazolin-7-yl)-2-amino-7-fluorobenzo[b]thiophene-3-carbonitrile], 103 nM.
Consider `N#Cc1c(N)sc2c(F)ccc(-c3c(C(F)(F)F)cc4c(N5CC6CCC(C5)N6)nc(OCC5(C#N)CCOC5)nc4c3F)c12` (single isomer, unassigned) [Example 10-Isomer 1, 3-(((7-(2-amino-3-cyano-7-fluorobenzo[b]thiophen-4-yl)-4-(3,8-diazabicyclo[3.2.1]octan-3-yl)-8-fluoro-6-(trifluoromethyl)quinazolin-2-yl)oxy)methyl)tetrahydrofuran-3-carbonitrile], for which the IC50 is > 10000 nM.
As for `N#Cc1c(N)sc2c(F)ccc(-c3c(C(F)(F)F)cc4c(N5CC6CCC(C5)N6)nc(OCC5(C#N)CCOC5)nc4c3F)c12` (single isomer, unassigned) [Example 10-Isomer 2, 3-(((7-(2-amino-3-cyano-7-fluorobenzo[b]thiophen-4-yl)-4-(3,8-diazabicyclo[3.2.1]octan-3-yl)-8-fluoro-6-(trifluoromethyl)quinazolin-2-yl)oxy)methyl)tetrahydrofuran-3-carbonitrile], the IC50 was > 10000 nM.
On the same count and under the same terms, with `N#Cc1c(N)sc2c(F)ccc(-c3c(C(F)(F)F)cc4c(N5CC6CCC(C5)N6)nc(OCC5(C#N)CCOC5)nc4c3F)c12` (single isomer, unassigned) [Example 10-Isomer 3, 3-(((7-(2-amino-3-cyano-7-fluorobenzo[b]thiophen-4-yl)-4-(3,8-diazabicyclo[3.2.1]octan-3-yl)-8-fluoro-6-(trifluoromethyl)quinazolin-2-yl)oxy)methyl)tetrahydrofuran-3-carbonitrile] the figure was 42 nM.
In turn, `N#Cc1c(N)sc2c(F)ccc(-c3c(C(F)(F)F)cc4c(N5CC6CCC(C5)N6)nc(OCC5(C#N)CCOC5)nc4c3F)c12` (single isomer, unassigned) [Example 10-Isomer 4, 3-(((7-(2-amino-3-cyano-7-fluorobenzo[b]thiophen-4-yl)-4-(3,8-diazabicyclo[3.2.1]octan-3-yl)-8-fluoro-6-(trifluoromethyl)quinazolin-2-yl)oxy)methyl)tetrahydrofuran-3-carbonitrile] had an IC50 of 56 nM. The IC50 values of the last two compounds are within 1.5-fold of each other.
On the same count and under the same terms, with `N#Cc1c(N)sc2c(F)ccc(-c3c(C(F)(F)F)cc4c(N5CC6CCC(C5)N6)nc(OCC5(C(F)F)CCOC5)nc4c3F)c12` (single isomer, unassigned) [Example 14-Isomer 4, 4-(4-(3,8-diazabicyclo[3.2.1]octan-3-yl)-2-((3-(difluoromethyl)tetrahydrofuran-3-yl)methoxy)-8-fluoro-6-(trifluoromethyl)quinazolin-7-yl)-2-amino-7-fluorobenzo[b]thiophene-3-carbonitrile] the figure was 138 nM; with `N#Cc1c(N)sc2c(F)ccc(-c3c(C(F)(F)F)cc4c(N5CC6CCC(C5)N6)nc(OCC5(C#N)CCOCC5)nc4c3F)c12` (single isomer, unassigned) [Example 22-Isomer 1, 4-(((7-(2-amino-3-cyano-7-fluorobenzo[b]thiophen-4-yl)-4-(3,8-diazabicyclo[3.2.1]octan-3-yl)-8-fluoro-6-(trifluoromethyl)quinazolin-2-yl)oxy)methyl)tetrahydro-2H-pyran-4-carbonitrile], > 10000 nM.

Staying with this test, now noted: Homo sapiens, ASPC1, 2 h, 2 h compound treatment.
As for `COC1(COc2nc(N3CC4CCC(C3)N4)c3cc(C(F)(F)F)c(-c4ccc(F)c5sc(N)c(C#N)c45)c(F)c3n2)CCOCC1` (single isomer, unassigned) [Example 4-Isomer 2, 4-(4-(3,8-diazabicyclo[3.2.1]octan-3-yl)-8-fluoro-2-((4-methoxytetrahydro-2H-pyran-4-yl)methoxy)-6-(trifluoromethyl)quinazolin-7-yl)-2-amino-7-fluorobenzo[b]thiophene-3 carbonitrile], the IC50 came out at 100 nM.
The same measure, in the same setting: with `N#Cc1c(N)sc2c(F)ccc(-c3c(Cl)cc4c(N5C6CCC5CNC6)nc(OCC56COC(C5)C6)nc4c3F)c12` (single isomer, unassigned) [Example 5-Isomer 2, 4-(2-((2-oxabicyclo[2.1.1]hexan-4-yl)methoxy)-4-(3,8-diazabicyclo [3.2.1]octan-8-yl)-6-chloro-8-fluoroquinazolin-7-yl)-2-amino-7-fluorobenzo[b]thio phene-3-carbonitrile] the figure was 44 nM; with `COCC12CC(COc3nc(N4CC5CCC(C4)N5)c4cc(C(F)(F)F)c(-c5ccc(F)c6sc(N)c(C#N)c56)c(F)c4n3)(CO1)C2` (single isomer, unassigned) [Example 11-Isomer 2, 4-(4-(3,8-diazabicyclo[3.2.1]octan-3-yl)-8-fluoro-2-((1-(methoxymethyl)-2-oxabicyclo[2.1.1]hexan-4-yl)methoxy)-6-(trifluoromethyl)quinazolin-7-yl)-2-amino-7-fluorobenzo[b]thiophene-3-carbonitrile], 37 nM; with `N#Cc1c(N)sc2c(F)ccc(-c3c(C(F)(F)F)cc4c(N5CC6CCC(C5)N6)nc(OCC5(C(F)F)CCOC5)nc4c3F)c12` (single isomer, unassigned) [Example 14-Isomer 3, 4-(4-(3,8-diazabicyclo[3.2.1]octan-3-yl)-2-((3-(difluoromethyl)tetrahydrofuran-3-yl)methoxy)-8-fluoro-6-(trifluoromethyl)quinazolin-7-yl)-2-amino-7-fluorobenzo[b]thiophene-3-carbonitrile], 172 nM.

For orientation: IC50 means the midpoint of a concentration-inhibition curve. Higher therefore signals a need for much substance.
